Organism: Rattus norvegicus
Test: DrugMatrix - Regimen: Daily Repeat
Format: toxicity, organism-based, Sprague-Dawley
Set-up: regimen Daily Repeat, gender Male, age 6-8 weeks
Settings: in vivo, sc, route subcutaneous, […]; for ABSOLUTE BASOPHIL / ABSOLUTE EOSINOPHIL / ABSOLUTE LYMPHOCYTE / ABSOLUTE MONOCYTE / ABSOLUTE SEGMENTED NEUTROPHIL / BASOPHIL / EOSINOPHIL / ERYTHROCYTE COUNT / HEMATOCRIT / HEMOGLOBIN / LEUKOCYTE COUNT / LYMPHOCYTE / MEAN CORPUSCULAR HEMOGLOBIN / MEAN CORPUSCULAR HEMOGLOBIN CONCENTRATION / MEAN CORPUSCULAR VOLUME / MONOCYTE / NEUTROPHIL / NUCLEATED RED BLOOD CELLS / PLATELET COUNT: tissue Blood; for ALANINE AMINOTRANSFERASE / ALBUMIN / ALKALINE PHOSPHATASE / ASPARTATE AMINOTRANSFERASE / BLOOD UREA NITROGEN / CARBON DIOXIDE / CHLORIDE / CHOLESTEROL / CREATINE PHOSPHOKINASE / CREATININE / GLUCOSE / LACTATE DEHYDROGENASE / LIPASE / PHOSPHORUS / POTASSIUM / SODIUM / TOTAL BILIRUBIN / TOTAL PROTEIN / URIC ACID: tissue Plasma
[1] = 56 mg/kg, 120 h, dose level High, time 5 day
[2] = 72 h, dose 3.3 mg/Kg, dose level Low, time 3 day
[3] = 120 h, dose 3.3 mg/Kg, dose level Low, time 5 day

Which “ABSOLUTE BASOPHIL” value [1] does the source give for `C[C@]12CCC(=O)C=C1CC[C@@H]1[C@@H]2[C@@H](O)C[C@@]2(C)[C@H]1CC[C@]2(O)C(=O)CO` [HYDROCORTISONE] here?
Its value is 0 CELLS/uL.

What about the “ABSOLUTE EOSINOPHIL” value [1] of the same molecule?
The value was 0 CELLS/uL.

What about the “ABSOLUTE LYMPHOCYTE” value [1] of the same molecule?
Its value is 1058 CELLS/uL.

What about the “ABSOLUTE MONOCYTE” value [1] of the same molecule?
Its value is 166.67 CELLS/uL.

What about the “ABSOLUTE SEGMENTED NEUTROPHIL” value [1] of the same molecule?
The value was 5575.33 CELLS/uL.

What about the BASOPHIL [1] of the same molecule?
Its BASOPHIL is 0%.

And the EOSINOPHIL [1]?
Its EOSINOPHIL is 0%.

And the “ERYTHROCYTE COUNT” value [1]?
The value was 6.58 x10E6/uL.

What about the HEMATOCRIT [1] of the same molecule?
Its HEMATOCRIT is 40.47%.

What about the HEMOGLOBIN [1] of the same molecule?
Its HEMOGLOBIN is 15.5 G/DL.

And the “LEUKOCYTE COUNT” value [1]?
Its value is 6.8 x10E3/uL.

And the LYMPHOCYTE [1]?
The LYMPHOCYTE was 17%.

What about the “MEAN CORPUSCULAR HEMOGLOBIN” value [1] of the same molecule?
Its value is 23.6 pg.

And the “MEAN CORPUSCULAR HEMOGLOBIN CONCENTRATION” value [1]?
Its value is 38.3 G/DL.

And the “MEAN CORPUSCULAR VOLUME” value [1]?
The value was 61.63 fL.

And the MONOCYTE [1]?
Its MONOCYTE is 2.33%.

And the NEUTROPHIL [1]?
The NEUTROPHIL was 80.67%.

What about the “NUCLEATED RED BLOOD CELLS” value [1] of the same molecule?
Its value is 0 /100WBC.

What about the “PLATELET COUNT” value [1] of the same molecule?
Its value is 1367.33 x10E3/uL.

What about the “ALANINE AMINOTRANSFERASE” value [1] of the same molecule?
The value was 309 u/L.

And the ALBUMIN [1]?
The ALBUMIN was 4.87 G/DL.

And the “ALKALINE PHOSPHATASE” value [1]?
The value was 497.33 u/L.

What about the “ASPARTATE AMINOTRANSFERASE” value [1] of the same molecule?
Its value is 475.33 u/L.

And the “BLOOD UREA NITROGEN” value [1]?
Its value is 23 mg/dL.

What about the “CARBON DIOXIDE” value [1] of the same molecule?
The value was 31.33 mmol/L.

And the CHLORIDE [1]?
The CHLORIDE was 95 MEQ/L.

And the CHOLESTEROL [1]?
The CHOLESTEROL was 140 mg/dL.

What about the “CREATINE PHOSPHOKINASE” value [1] of the same molecule?
The value was 224.67 u/L.

What about the CREATININE [1] of the same molecule?
The CREATININE was 0.49 mg/dL.

What about the GLUCOSE [1] of the same molecule?
Its GLUCOSE is 479 mg/dL.

And the “LACTATE DEHYDROGENASE” value [1]?
Its value is 701 u/L.

And the LIPASE [1]?
Its LIPASE is 15 u/L.

What about the PHOSPHORUS [1] of the same molecule?
Its PHOSPHORUS is 12.63 mg/dL.

And the POTASSIUM [1]?
Its POTASSIUM is 5.83 MEQ/L.

What about the SODIUM [1] of the same molecule?
The SODIUM was 145.23 MEQ/L.

What about the “TOTAL BILIRUBIN” value [1] of the same molecule?
The value was 0.17 mg/dL.

And the “TOTAL PROTEIN” value [1]?
Its value is 6.73 G/DL.

What about the “URIC ACID” value [1] of the same molecule?
Its value is 1.57 mg/dL.

What about the “ABSOLUTE BASOPHIL” value [2] of the same molecule?
Its value is 0 CELLS/uL.

And the “ABSOLUTE EOSINOPHIL” value [2]?
Its value is 0 CELLS/uL.

And the “ABSOLUTE LYMPHOCYTE” value [2]?
The value was 9134.67 CELLS/uL.

And the “ABSOLUTE MONOCYTE” value [2]?
Its value is 0 CELLS/uL.

What about the “ABSOLUTE SEGMENTED NEUTROPHIL” value [2] of the same molecule?
The value was 898.67 CELLS/uL.

And the BASOPHIL [2]?
The BASOPHIL was 0%.

And the EOSINOPHIL [2]?
The EOSINOPHIL was 0%.

And the “ERYTHROCYTE COUNT” value [2]?
Its value is 5.23 x10E6/uL.

What about the HEMATOCRIT [2] of the same molecule?
The HEMATOCRIT was 33.47%.

What about the HEMOGLOBIN [2] of the same molecule?
The HEMOGLOBIN was 13.37 G/DL.

What about the “LEUKOCYTE COUNT” value [2] of the same molecule?
Its value is 10.03 x10E3/uL.

What about the LYMPHOCYTE [2] of the same molecule?
Its LYMPHOCYTE is 90.67%.

What about the “MEAN CORPUSCULAR HEMOGLOBIN” value [2] of the same molecule?
The value was 25.6 pg.

What about the “MEAN CORPUSCULAR HEMOGLOBIN CONCENTRATION” value [2] of the same molecule?
Its value is 39.93 G/DL.

And the “MEAN CORPUSCULAR VOLUME” value [2]?
Its value is 64.07 fL.

And the MONOCYTE [2]?
Its MONOCYTE is 0%.

And the NEUTROPHIL [2]?
Its NEUTROPHIL is 9.33%.

What about the “NUCLEATED RED BLOOD CELLS” value [2] of the same molecule?
The value was 0 /100WBC.

What about the “PLATELET COUNT” value [2] of the same molecule?
The value was 1185.33 x10E3/uL.

What about the “ALANINE AMINOTRANSFERASE” value [2] of the same molecule?
The value was 42.33 u/L.

What about the ALBUMIN [2] of the same molecule?
Its ALBUMIN is 4.73 G/DL.

And the “ALKALINE PHOSPHATASE” value [2]?
The value was 429 u/L.

What about the “ASPARTATE AMINOTRANSFERASE” value [2] of the same molecule?
The value was 94.33 u/L.

What about the “BLOOD UREA NITROGEN” value [2] of the same molecule?
The value was 15.67 mg/dL.

And the “CARBON DIOXIDE” value [2]?
The value was 32.67 mmol/L.

And the CHLORIDE [2]?
Its CHLORIDE is 101.33 MEQ/L.

What about the CHOLESTEROL [2] of the same molecule?
The CHOLESTEROL was 78.67 mg/dL.

What about the “CREATINE PHOSPHOKINASE” value [2] of the same molecule?
Its value is 185 u/L.

What about the CREATININE [2] of the same molecule?
The CREATININE was 0.23 mg/dL.

And the GLUCOSE [2]?
Its GLUCOSE is 137.67 mg/dL.

What about the “LACTATE DEHYDROGENASE” value [2] of the same molecule?
The value was 131.33 u/L.

And the LIPASE [2]?
Its LIPASE is 9.67 u/L.

And the PHOSPHORUS [2]?
The PHOSPHORUS was 12.3 mg/dL.

What about the POTASSIUM [2] of the same molecule?
Its POTASSIUM is 6.34 MEQ/L.

And the SODIUM [2]?
Its SODIUM is 150.8 MEQ/L.

And the “TOTAL BILIRUBIN” value [2]?
The value was 0.3 mg/dL.

And the “TOTAL PROTEIN” value [2]?
Its value is 6.73 G/DL.

And the “URIC ACID” value [2]?
Its value is 0.83 mg/dL.

And the “ABSOLUTE BASOPHIL” value [3]?
The value was 0 CELLS/uL.

And the “ABSOLUTE EOSINOPHIL” value [3]?
Its value is 115 CELLS/uL.

What about the “ABSOLUTE LYMPHOCYTE” value [3] of the same molecule?
Its value is 10473.33 CELLS/uL.

And the “ABSOLUTE MONOCYTE” value [3]?
Its value is 38.33 CELLS/uL.

And the “ABSOLUTE SEGMENTED NEUTROPHIL” value [3]?
The value was 1440 CELLS/uL.

And the BASOPHIL [3]?
Its BASOPHIL is 0%.

And the EOSINOPHIL [3]?
Its EOSINOPHIL is 1%.

What about the “ERYTHROCYTE COUNT” value [3] of the same molecule?
The value was 5.54 x10E6/uL.

And the HEMATOCRIT [3]?
The HEMATOCRIT was 36.47%.

What about the HEMOGLOBIN [3] of the same molecule?
Its HEMOGLOBIN is 14.6 G/DL.

And the “LEUKOCYTE COUNT” value [3]?
Its value is 12.07 x10E3/uL.

And the LYMPHOCYTE [3]?
The LYMPHOCYTE was 87%.

What about the “MEAN CORPUSCULAR HEMOGLOBIN” value [3] of the same molecule?
Its value is 26.37 pg.

And the “MEAN CORPUSCULAR HEMOGLOBIN CONCENTRATION” value [3]?
Its value is 40.07 G/DL.

And the “MEAN CORPUSCULAR VOLUME” value [3]?
Its value is 65.8 fL.

What about the MONOCYTE [3] of the same molecule?
Its MONOCYTE is 0.33%.

What about the NEUTROPHIL [3] of the same molecule?
The NEUTROPHIL was 11.67%.

What about the “NUCLEATED RED BLOOD CELLS” value [3] of the same molecule?
Its value is 0 /100WBC.

And the “PLATELET COUNT” value [3]?
Its value is 1230 x10E3/uL.

And the “ALANINE AMINOTRANSFERASE” value [3]?
Its value is 51.67 u/L.

And the ALBUMIN [3]?
Its ALBUMIN is 4.73 G/DL.

And the “ALKALINE PHOSPHATASE” value [3]?
The value was 334.67 u/L.

What about the “ASPARTATE AMINOTRANSFERASE” value [3] of the same molecule?
The value was 73 u/L.

And the “BLOOD UREA NITROGEN” value [3]?
Its value is 15.33 mg/dL.

And the “CARBON DIOXIDE” value [3]?
The value was 31.33 mmol/L.

And the CHLORIDE [3]?
Its CHLORIDE is 104 MEQ/L.

And the CHOLESTEROL [3]?
The CHOLESTEROL was 66 mg/dL.

And the “CREATINE PHOSPHOKINASE” value [3]?
The value was 123.33 u/L.

And the CREATININE [3]?
Its CREATININE is 0.18 mg/dL.

What about the GLUCOSE [3] of the same molecule?
Its GLUCOSE is 160 mg/dL.

What about the “LACTATE DEHYDROGENASE” value [3] of the same molecule?
The value was 97.33 u/L.

What about the LIPASE [3] of the same molecule?
The LIPASE was 9.33 u/L.

What about the PHOSPHORUS [3] of the same molecule?
Its PHOSPHORUS is 14.23 mg/dL.

And the POTASSIUM [3]?
The POTASSIUM was 6.63 MEQ/L.

And the SODIUM [3]?
The SODIUM was 149.93 MEQ/L.

And the “TOTAL BILIRUBIN” value [3]?
Its value is 0.2 mg/dL.

What about the “TOTAL PROTEIN” value [3] of the same molecule?
Its value is 6.63 G/DL.

What about the “URIC ACID” value [3] of the same molecule?
The value was 1.7 mg/dL.

From ChEMBL document CHEMBL3885881, “DrugMatrix”
